Experimental data published in BindingDB's records for doi:10.1021/jm040099a (Johnson & Johnson Pharmaceutical, 2005).

Experiments:
[1] = molecular target: Vascular endothelial growth factor receptor 2 (Rattus norvegicus, UniProt O08775); assay: Kinase Inhibition Assay
Method: (§1) The enzyme was assayed with a biotinylated peptide substrate and test compounds in the presence of 5 uM ATP/[gamma-33P]ATP in a streptavidin coated FlashPlate (Perkin-Elmer, Boston, MA). Inhibition of the enzymatic activity due to the compound was measured by observing a reduced amount of 33P-gamma-ATP incorporated into the immobilized peptide relative to untreated controls. Linear regression analysis of the percent of inhibition by the test compound was used to calculate IC50 values.

[2] = molecular target: Cyclin-dependent kinase/G2/mitotic-specific cyclin- 1 (Homo sapiens, UniProt P06493); assay: Kinase Inhibition Assay; details: pH 8; 30 °C
Method: as §1

Chain of Vascular endothelial growth factor receptor 2 (O08775 whole entry): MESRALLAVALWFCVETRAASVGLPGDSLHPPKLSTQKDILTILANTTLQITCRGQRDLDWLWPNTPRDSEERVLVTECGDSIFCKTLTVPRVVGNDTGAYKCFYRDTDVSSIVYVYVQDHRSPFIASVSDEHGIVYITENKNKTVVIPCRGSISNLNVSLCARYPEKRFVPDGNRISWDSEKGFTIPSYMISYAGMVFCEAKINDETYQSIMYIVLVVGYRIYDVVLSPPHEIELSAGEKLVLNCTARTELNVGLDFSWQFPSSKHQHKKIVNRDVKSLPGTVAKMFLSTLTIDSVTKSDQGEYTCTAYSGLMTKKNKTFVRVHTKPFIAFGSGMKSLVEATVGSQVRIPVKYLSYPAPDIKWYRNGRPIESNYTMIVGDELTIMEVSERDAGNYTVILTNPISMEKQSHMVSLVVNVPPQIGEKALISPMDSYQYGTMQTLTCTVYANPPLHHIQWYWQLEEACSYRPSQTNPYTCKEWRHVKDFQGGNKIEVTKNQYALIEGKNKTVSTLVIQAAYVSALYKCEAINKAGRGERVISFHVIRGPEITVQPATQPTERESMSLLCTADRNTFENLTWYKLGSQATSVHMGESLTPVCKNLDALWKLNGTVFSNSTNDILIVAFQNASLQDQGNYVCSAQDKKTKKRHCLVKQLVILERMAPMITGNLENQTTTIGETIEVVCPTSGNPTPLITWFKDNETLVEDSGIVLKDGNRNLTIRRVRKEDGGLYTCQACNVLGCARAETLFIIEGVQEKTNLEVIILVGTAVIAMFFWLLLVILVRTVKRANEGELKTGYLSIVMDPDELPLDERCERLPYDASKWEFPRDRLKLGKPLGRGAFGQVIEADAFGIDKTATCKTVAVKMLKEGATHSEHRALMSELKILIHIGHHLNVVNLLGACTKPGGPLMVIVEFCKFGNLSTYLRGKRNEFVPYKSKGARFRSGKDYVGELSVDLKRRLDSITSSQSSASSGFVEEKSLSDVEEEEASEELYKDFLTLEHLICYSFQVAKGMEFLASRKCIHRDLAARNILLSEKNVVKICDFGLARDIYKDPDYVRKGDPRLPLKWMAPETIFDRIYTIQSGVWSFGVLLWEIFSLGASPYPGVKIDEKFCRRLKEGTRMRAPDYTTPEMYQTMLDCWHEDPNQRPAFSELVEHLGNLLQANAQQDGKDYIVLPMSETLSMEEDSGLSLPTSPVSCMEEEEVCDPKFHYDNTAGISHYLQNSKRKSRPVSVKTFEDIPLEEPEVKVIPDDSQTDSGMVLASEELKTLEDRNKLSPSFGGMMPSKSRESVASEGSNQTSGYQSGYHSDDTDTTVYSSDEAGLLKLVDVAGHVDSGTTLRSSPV
Chain of Cyclin-dependent kinase/G2/mitotic-specific cyclin- 1 (P06493 whole entry): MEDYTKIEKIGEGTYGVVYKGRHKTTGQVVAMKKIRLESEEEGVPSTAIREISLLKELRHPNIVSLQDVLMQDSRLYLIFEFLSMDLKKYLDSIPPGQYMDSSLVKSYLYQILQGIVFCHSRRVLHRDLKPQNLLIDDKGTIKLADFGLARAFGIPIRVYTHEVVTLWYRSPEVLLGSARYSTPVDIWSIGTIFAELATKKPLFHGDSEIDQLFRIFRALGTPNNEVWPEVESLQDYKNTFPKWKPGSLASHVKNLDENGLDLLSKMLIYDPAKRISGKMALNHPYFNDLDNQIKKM
Chain of Cyclin-dependent kinase/G2/mitotic-specific cyclin- 1 (P14635 whole entry, further chain): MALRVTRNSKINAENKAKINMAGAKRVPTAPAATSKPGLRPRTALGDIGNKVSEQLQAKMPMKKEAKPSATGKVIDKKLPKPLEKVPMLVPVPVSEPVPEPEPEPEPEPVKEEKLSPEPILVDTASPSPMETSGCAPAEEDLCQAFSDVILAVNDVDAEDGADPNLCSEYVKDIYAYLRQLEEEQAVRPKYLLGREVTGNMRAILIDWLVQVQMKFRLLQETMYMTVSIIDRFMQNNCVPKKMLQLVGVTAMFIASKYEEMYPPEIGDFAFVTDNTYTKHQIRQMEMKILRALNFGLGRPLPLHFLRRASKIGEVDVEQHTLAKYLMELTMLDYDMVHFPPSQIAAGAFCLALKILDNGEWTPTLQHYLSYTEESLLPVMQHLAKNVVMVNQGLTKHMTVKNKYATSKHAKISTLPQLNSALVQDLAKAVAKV

Row | SMILES | IC50 [1] [µM] | IC50 [2] [µM]
1 | OCCCNc1cncc(-c2ncc(Nc3cccc(Cl)c3)cn2)c1 [3-[(5-{5-[(3-chlorophenyl)amino]pyrimidin-2-yl}pyridin-3-yl)amino]propan-1-ol] | > 10 | 
2 | OCCCNc1ccc(-c2cncc(Nc3cccc(Cl)c3)n2)nc1 [3-{[6-[6-((3-Chlorophenyl)amino)pyrazin-2-yl]pyridin-3-yl]amino}propan-1-ol] | > 10 | 

Second part, the molecule after the results:

Row | IC50 [1] [µM] | IC50 [2] [µM] | SMILES
3 | > 10 |  | OCCCNc1cccc(-c2cncc(Nc3cccc(Cl)c3)n2)n1 [3-[(6-{6-[(3-chlorophenyl)amino]pyrazin-2-yl}pyridin-2-yl)amino]propan-1-ol]
4 | > 10 | > 10 | OCCCNc1cncc(-c2ncncc2Nc2cccc(Cl)c2)c1 [3-[[5-[5-[(3-Chlorophenyl)amino]-4-pyrimidinyl]-3-pyridinyl]amino]-1-propanol]
5 | > 10 |  | OCCCNc1cncc(-c2cc(Nc3cccc(Cl)c3)ncn2)c1 [3-[(5-{6-[(3-chlorophenyl)amino]pyrimidin-4-yl}pyridin-3-yl)amino]propan-1-ol]
6 | > 10 |  | OCCCNc1cncc(-c2cnc(Nc3cccc(Cl)c3)cn2)c1 [3-[[5-[5-[(3-chlorophenyl)amino]pyrazinyl]-3-pyridinyl]amino]-1-propanol]
